According to BindingDB's records for doi:10.1080/14756360701654894 (National Tsing Hua University, 2008):
pIC50: −log10 of the molar value.

Columns and labels:
[1] = target: T1, Polyphenol oxidase 2 (Agaricus bisporus, UniProt O42713); assay: Enzyme Assay; conditions: pH 6.8; 25 °C
T1 sequence (O42713 whole entry): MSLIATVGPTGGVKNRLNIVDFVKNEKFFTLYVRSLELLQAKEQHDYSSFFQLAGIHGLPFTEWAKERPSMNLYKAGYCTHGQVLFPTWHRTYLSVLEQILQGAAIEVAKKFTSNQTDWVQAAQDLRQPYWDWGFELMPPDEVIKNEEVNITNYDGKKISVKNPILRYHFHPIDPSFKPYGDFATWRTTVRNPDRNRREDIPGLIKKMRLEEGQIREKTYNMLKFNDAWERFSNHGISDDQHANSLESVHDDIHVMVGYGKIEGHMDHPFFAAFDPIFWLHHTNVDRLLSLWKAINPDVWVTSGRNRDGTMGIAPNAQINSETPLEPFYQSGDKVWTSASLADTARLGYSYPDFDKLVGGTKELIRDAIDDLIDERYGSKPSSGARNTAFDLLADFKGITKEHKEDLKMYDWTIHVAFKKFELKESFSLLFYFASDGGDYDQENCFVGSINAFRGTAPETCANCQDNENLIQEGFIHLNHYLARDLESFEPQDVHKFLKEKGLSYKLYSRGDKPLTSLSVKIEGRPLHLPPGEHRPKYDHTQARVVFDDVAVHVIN

[2] = target: T2, Tyrosinase (Mus musculus, UniProt P11344); assay: Enzyme Assay; conditions: pH 6.8; 25 °C
T2 sequence (P11344 whole entry): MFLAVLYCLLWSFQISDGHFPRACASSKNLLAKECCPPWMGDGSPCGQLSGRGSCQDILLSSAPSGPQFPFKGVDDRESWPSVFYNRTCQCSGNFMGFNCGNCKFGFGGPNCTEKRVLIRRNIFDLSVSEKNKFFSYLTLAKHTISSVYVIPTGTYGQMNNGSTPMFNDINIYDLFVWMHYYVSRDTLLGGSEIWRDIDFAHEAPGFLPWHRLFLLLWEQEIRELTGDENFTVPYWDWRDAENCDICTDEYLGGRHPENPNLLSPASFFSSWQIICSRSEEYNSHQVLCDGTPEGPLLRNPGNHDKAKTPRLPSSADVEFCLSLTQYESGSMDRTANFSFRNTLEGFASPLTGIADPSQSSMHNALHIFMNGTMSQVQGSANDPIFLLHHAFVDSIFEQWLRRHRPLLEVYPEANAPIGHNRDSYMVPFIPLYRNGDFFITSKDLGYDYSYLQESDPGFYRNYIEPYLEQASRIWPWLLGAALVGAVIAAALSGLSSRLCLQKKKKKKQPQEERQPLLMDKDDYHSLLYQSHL

Row | SMILES | pIC50 [1] | pIC50 [2]
1 | Oc1ccc(O)cc1 | 4.06 | 3.73
2 | OCC1OC(Oc2ccc(O)cc2)C(O)C(O)C1O (centres undefined) [2-Hydroxymethyl-6-(4-hydroxy-phenoxy)-tetrahydro-pyran-3,4,5-triol] | 3.53 | –
3 | COc1ccc(/C=C2/SC(=S)N(CCC(=O)O)C2=O)cc1 [3-[(5E)-5-[(4-methoxyphenyl)methylidene]-4-oxo-2-sulfanylidene-3-thiazolidinyl]propanoic acid] | 3.05 | 2.62
4 | OCc1ccc(O)cc1 [4-Hydroxybenzyl alcohol] | 3.46 | 3.19
5 | COc1cc(-c2nc(S(=O)(=O)c3ccc(C)cc3)c(N3CCOCC3)o2)cc(OC)c1OC [4-[4-(4-methylphenyl)sulfonyl-2-(3,4,5-trimethoxyphenyl)-5-oxazolyl]morpholine] | 3.40 | 3.02
